Assay results published in ChEMBL document CHEMBL3991601, “The target landscape of clinical kinase drugs” (Science, 2017).
Calls of active or inactive are those of the source.

What was measured:
DNA topoisomerase 2-beta = DNA topoisomerase 2-beta (Homo sapiens, UniProt Q02880)
[1] = molecular target: T1, Serine/threonine-protein kinase LATS1 (Homo sapiens, UniProt O95835)
T1 sequence (O95835 whole entry): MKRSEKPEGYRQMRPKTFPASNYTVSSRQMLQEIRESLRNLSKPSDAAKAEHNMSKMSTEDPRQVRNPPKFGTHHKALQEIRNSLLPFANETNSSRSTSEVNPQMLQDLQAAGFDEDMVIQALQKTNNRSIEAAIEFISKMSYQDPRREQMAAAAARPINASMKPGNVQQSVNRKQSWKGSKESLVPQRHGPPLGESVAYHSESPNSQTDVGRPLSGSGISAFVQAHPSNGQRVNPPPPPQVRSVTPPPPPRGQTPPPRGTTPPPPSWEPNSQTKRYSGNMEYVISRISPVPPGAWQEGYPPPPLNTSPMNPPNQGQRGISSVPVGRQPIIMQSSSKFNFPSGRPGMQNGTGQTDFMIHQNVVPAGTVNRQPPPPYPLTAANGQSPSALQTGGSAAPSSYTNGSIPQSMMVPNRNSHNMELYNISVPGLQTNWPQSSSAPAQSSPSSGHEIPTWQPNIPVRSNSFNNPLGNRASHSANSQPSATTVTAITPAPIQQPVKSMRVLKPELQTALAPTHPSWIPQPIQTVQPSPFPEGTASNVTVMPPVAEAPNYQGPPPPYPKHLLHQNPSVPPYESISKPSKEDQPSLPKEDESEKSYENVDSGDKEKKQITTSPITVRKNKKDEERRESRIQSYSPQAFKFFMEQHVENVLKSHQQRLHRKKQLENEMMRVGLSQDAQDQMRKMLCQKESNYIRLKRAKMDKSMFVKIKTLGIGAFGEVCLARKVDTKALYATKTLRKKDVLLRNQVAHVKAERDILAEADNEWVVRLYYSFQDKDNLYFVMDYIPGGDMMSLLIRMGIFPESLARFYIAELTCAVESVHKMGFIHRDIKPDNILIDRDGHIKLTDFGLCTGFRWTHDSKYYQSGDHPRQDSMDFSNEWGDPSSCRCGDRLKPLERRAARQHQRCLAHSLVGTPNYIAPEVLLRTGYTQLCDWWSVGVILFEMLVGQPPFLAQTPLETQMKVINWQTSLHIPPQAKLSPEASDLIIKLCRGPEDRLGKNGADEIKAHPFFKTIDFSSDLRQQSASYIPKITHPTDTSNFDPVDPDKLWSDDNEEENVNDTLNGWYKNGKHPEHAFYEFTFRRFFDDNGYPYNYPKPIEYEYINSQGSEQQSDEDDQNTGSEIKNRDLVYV

[2] = molecular target: DnaJ homolog subfamily A member 1 (Homo sapiens, UniProt P31689)
DnaJ homolog subfamily A member 1, sequence (P31689 whole entry): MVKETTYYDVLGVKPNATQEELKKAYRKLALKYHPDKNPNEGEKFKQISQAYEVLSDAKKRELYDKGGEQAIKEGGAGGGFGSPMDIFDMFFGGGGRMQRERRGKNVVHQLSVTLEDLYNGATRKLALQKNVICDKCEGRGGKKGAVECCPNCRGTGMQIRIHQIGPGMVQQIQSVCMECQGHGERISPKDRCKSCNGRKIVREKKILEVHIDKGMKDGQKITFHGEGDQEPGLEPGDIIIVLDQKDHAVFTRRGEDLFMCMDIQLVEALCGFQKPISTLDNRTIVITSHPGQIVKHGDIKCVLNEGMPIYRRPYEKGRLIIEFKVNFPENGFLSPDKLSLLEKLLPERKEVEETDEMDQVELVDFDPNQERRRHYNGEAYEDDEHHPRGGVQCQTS

[3] = molecular target: Bone morphogenetic protein receptor type-1A (Homo sapiens, UniProt P36894)
Bone morphogenetic protein receptor type-1A, sequence (P36894 whole entry): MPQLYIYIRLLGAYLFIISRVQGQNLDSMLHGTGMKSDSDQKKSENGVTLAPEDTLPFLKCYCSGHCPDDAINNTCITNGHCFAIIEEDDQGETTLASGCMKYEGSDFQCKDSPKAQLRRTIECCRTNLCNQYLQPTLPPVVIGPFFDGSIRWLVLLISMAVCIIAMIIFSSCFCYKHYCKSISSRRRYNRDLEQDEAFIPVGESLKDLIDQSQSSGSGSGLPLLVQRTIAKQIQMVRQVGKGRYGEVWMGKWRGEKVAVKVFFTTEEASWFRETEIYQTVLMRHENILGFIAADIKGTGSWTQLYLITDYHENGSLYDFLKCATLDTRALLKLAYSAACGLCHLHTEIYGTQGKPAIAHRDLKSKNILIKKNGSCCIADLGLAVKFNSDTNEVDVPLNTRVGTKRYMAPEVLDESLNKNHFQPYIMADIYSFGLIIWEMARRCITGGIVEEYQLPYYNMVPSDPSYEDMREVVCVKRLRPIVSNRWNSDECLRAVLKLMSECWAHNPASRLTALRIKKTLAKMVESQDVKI

[4] = molecular target: T2, Uncharacterized protein FLJ45252 (Homo sapiens, UniProt Q6ZSR9); settings: read-out: Kd apparent; k-562, colo 205, sk-n-be(2) and mv-4-11
T2 sequence (Q6ZSR9 whole entry): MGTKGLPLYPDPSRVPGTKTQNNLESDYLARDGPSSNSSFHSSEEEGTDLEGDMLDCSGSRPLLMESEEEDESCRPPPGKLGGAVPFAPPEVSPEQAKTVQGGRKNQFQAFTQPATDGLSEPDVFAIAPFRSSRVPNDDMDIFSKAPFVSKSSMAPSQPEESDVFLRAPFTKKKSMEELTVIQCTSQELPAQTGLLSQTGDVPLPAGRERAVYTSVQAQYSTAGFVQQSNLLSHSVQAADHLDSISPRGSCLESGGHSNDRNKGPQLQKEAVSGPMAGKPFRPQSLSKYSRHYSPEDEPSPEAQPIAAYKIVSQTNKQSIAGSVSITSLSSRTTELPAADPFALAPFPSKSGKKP

[5] = molecular target: T3, Dynamin-like GTPase OPA1, mitochondrial (Homo sapiens, UniProt O60313)
T3 sequence (O60313 whole entry): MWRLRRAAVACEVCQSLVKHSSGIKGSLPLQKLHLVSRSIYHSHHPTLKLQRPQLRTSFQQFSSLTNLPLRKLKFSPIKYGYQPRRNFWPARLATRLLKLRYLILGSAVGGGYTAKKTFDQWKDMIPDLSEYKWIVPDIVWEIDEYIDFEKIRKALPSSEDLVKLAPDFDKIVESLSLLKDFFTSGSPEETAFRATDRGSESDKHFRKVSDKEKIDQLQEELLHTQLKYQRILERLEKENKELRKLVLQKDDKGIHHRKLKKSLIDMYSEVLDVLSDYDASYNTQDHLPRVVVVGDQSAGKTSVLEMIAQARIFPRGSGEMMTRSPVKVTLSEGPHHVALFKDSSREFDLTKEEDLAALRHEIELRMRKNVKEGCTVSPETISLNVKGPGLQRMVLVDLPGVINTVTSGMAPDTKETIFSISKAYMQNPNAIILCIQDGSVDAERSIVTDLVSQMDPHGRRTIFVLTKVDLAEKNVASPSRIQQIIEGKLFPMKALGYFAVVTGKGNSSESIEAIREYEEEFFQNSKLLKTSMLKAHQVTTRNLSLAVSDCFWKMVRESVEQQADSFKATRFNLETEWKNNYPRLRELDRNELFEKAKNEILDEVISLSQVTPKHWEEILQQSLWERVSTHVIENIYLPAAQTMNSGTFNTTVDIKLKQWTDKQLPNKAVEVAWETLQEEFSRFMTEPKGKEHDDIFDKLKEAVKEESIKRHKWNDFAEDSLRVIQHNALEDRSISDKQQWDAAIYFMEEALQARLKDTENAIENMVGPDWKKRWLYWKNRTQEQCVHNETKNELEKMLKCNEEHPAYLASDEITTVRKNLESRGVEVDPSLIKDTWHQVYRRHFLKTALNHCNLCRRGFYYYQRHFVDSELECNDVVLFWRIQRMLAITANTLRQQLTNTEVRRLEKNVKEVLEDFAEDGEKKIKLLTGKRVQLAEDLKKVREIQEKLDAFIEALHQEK

[6] = molecular target: Ribosomal protein S6 kinase beta-1 (Homo sapiens, UniProt P23443)
Ribosomal protein S6 kinase beta-1, sequence (P23443 whole entry): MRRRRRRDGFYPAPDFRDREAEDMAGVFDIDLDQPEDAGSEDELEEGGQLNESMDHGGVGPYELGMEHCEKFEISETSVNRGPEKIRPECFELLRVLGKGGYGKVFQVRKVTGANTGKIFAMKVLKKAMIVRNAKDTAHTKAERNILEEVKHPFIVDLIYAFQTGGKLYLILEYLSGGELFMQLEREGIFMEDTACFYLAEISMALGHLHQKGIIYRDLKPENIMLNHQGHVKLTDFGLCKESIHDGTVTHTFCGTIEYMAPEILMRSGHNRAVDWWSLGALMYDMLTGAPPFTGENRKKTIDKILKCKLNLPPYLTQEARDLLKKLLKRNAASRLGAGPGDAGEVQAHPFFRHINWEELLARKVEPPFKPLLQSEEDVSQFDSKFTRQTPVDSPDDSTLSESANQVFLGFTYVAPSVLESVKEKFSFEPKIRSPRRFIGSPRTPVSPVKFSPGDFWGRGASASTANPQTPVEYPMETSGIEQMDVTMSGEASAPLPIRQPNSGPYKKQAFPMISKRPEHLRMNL

[7] = molecular target: Non-receptor tyrosine-protein kinase TYK2 (Homo sapiens, UniProt P29597)
[8] = molecular target: Hepatocyte growth factor receptor (Homo sapiens, UniProt P08581)
[9] = molecular target: Cyclin-dependent kinase 1 (Homo sapiens, UniProt P06493)
Cyclin-dependent kinase 1, sequence (P06493 whole entry, canonical isoform): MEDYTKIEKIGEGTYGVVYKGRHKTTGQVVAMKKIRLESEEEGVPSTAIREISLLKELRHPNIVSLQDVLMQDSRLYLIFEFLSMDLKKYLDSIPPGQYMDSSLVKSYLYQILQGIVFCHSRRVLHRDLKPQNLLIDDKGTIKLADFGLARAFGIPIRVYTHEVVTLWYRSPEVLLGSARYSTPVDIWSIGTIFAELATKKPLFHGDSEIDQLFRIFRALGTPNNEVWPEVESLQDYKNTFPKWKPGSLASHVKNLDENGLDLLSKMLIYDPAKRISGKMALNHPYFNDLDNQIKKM

[10] = molecular target: Casein kinase I isoform alpha (Homo sapiens, UniProt P48729)
Casein kinase I isoform alpha, sequence (P48729 whole entry, canonical isoform): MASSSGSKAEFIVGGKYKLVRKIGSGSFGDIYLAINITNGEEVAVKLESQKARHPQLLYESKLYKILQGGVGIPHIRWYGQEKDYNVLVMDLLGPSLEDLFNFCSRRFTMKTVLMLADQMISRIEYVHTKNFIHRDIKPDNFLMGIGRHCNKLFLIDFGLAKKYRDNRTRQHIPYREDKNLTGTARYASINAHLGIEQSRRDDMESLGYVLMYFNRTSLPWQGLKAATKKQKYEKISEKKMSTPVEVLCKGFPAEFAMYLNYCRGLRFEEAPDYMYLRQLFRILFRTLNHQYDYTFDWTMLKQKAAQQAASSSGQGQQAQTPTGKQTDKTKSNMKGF

Ephrin type-A receptor 7 = Ephrin type-A receptor 7 (Homo sapiens, UniProt Q15375)
Ephrin type-A receptor 7, sequence (Q15375 whole entry): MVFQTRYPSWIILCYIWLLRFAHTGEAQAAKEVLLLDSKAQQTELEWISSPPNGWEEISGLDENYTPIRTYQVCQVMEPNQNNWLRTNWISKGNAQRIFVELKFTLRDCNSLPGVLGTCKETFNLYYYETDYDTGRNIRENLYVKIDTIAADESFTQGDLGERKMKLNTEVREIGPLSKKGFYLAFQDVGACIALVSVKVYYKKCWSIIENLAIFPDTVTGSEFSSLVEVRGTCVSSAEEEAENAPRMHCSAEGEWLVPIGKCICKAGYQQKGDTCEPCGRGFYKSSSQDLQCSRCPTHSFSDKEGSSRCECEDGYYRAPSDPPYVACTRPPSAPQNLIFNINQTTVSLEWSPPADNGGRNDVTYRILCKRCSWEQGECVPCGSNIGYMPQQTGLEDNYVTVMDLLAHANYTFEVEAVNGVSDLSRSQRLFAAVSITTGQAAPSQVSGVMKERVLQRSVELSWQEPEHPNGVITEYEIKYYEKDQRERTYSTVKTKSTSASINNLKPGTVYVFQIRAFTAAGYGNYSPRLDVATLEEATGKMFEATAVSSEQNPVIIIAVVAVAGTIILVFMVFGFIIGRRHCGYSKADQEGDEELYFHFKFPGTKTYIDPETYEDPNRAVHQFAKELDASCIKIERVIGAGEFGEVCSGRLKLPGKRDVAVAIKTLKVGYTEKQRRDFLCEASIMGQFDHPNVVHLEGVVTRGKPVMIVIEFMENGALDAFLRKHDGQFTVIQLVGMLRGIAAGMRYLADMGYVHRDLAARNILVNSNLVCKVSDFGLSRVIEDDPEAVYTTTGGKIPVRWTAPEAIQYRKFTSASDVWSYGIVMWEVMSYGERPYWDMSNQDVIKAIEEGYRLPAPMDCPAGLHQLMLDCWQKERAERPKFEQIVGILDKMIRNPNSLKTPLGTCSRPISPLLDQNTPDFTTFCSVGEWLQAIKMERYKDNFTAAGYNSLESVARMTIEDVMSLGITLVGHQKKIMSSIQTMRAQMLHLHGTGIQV
Further: in the data inactive means no Kd found up to 30 µM.

DNA topoisomerase 2-beta, sequence (Q02880 whole entry): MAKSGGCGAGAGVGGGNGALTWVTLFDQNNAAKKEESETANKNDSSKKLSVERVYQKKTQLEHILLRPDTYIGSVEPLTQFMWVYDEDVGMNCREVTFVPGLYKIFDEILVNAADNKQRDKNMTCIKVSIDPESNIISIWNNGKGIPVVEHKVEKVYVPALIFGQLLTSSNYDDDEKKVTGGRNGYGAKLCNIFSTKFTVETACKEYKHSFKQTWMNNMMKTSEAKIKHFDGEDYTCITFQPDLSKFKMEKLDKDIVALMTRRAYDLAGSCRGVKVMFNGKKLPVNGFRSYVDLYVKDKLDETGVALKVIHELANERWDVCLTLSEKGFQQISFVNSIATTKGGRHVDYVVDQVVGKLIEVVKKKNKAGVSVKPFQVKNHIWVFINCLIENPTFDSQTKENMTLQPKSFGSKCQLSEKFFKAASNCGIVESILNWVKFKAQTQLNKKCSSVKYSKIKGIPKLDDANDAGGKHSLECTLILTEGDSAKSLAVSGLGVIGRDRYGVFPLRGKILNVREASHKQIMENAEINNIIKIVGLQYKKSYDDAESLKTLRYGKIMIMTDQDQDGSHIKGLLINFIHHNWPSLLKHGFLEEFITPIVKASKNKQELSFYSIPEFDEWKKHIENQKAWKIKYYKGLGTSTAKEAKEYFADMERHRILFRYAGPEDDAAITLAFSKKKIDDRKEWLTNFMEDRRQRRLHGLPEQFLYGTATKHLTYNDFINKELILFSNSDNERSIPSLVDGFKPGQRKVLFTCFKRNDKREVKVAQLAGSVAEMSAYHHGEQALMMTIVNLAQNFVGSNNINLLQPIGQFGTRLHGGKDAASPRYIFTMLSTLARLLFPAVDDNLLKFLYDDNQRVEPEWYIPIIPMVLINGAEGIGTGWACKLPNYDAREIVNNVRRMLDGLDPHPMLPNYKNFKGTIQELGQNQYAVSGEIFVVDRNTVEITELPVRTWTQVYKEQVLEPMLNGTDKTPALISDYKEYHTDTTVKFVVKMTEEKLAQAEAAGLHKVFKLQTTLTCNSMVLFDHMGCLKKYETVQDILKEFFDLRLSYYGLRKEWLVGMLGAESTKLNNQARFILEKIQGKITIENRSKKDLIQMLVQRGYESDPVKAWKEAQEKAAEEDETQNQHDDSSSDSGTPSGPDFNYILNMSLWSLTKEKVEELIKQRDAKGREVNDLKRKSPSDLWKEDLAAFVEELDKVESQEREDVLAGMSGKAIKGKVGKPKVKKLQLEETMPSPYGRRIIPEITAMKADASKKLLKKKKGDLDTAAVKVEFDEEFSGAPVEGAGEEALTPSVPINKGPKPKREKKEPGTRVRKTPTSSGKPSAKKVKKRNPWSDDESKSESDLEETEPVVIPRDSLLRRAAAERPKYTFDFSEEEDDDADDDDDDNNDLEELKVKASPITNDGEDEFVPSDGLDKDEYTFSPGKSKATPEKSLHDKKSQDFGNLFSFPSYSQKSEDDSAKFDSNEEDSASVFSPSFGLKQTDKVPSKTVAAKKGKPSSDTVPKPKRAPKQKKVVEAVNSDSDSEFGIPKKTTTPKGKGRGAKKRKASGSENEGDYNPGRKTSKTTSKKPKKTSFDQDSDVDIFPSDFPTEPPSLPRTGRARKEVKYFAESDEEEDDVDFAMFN

SMILES | Kd (DNA topoisomerase 2-beta) | Kd [1] | Kd [2] | Kd [3] | Kd [4] | Kd [5] | Kd [6] | Kd [7] | Kd [8] | Kd [9] | Kd [10] | Kd (Ephrin type-A receptor 7)
C[C@H]1CNCCCN1S(=O)(=O)c1cccc2cncc(F)c12 | > 30 µM (inactive) | > 30 µM (inactive) | > 30 µM (inactive) | > 30 µM (inactive) | > 30 µM (inactive) | > 30 µM (inactive) | > 30 µM (inactive) | > 30 µM (inactive) | > 30 µM (inactive) | > 30 µM (inactive) | > 30 µM (inactive) | –
Cc1nc2cc(-c3nn(C(C)C)c4ncnc(N)c34)ccc2o1 | > 30 µM (inactive) | > 30 µM (inactive) | > 30 µM (inactive) | 1.28 µM (active) | > 30 µM (inactive) | > 30 µM (inactive) | > 30 µM (inactive) | > 30 µM (inactive) | > 30 µM (inactive) | > 30 µM (inactive) | – | > 30 µM (inactive)
O=C(Nc1nc2cccc(-c3ccc(CN4CCS(=O)(=O)CC4)cc3)n2n1)C1CC1 [FILGOTINIB] | > 30 µM (inactive) | > 30 µM (inactive) | > 30 µM (inactive) | > 30 µM (inactive) | – | > 30 µM (inactive) | > 30 µM (inactive) | – | > 30 µM (inactive) | > 30 µM (inactive) | > 30 µM (inactive) | > 30 µM (inactive)
Cc1cccc(-c2nn3c(c2-c2ccnc4ccc(C(N)=O)cc24)CCC3)n1 [GALUNISERTIB] | > 30 µM (inactive) | > 30 µM (inactive) | > 30 µM (inactive) | > 30 µM (inactive) | > 30 µM (inactive) | > 30 µM (inactive) | > 30 µM (inactive) | > 30 µM (inactive) | > 30 µM (inactive) | > 30 µM (inactive) | – | > 30 µM (inactive)
CNC(=O)c1nn(C)c2c1C(C)(C)Cc1cnc(Nc3ccc(N4CCN(C)CC4)cc3)nc1-2 [MILCICLIB] | > 30 µM (inactive) | 0.681 µM (active) | > 30 µM (inactive) | > 30 µM (inactive) | – | > 30 µM (inactive) | > 30 µM (inactive) | > 30 µM (inactive) | – | > 30 µM (inactive) | 0.995 µM (active) | > 30 µM (inactive)
COc1ncc(-c2ccc3nccc(-c4ccnnc4)c3c2)cc1NS(=O)(=O)c1ccc(F)cc1F [OMIPALISIB] | > 30 µM (inactive) | > 30 µM (inactive) | > 30 µM (inactive) | > 30 µM (inactive) | > 30 µM (inactive) | > 30 µM (inactive) | > 30 µM (inactive) | > 30 µM (inactive) | – | > 30 µM (inactive) | > 30 µM (inactive) | > 30 µM (inactive)
CCOc1cc2ncc(C#N)c(Nc3ccc(F)c(Cl)c3)c2cc1NC(=O)/C=C/CN(C)C [PELITINIB] | > 30 µM (inactive) | > 30 µM (inactive) | > 30 µM (inactive) | > 30 µM (inactive) | > 30 µM (inactive) | > 30 µM (inactive) | > 30 µM (inactive) | > 30 µM (inactive) | – | > 30 µM (inactive) | > 30 µM (inactive) | > 30 µM (inactive)
CNC(=O)c1cc(Oc2ccc(NC(=O)Nc3cc(C(C)(C)C)nn3-c3ccc4ncccc4c3)c(F)c2)ccn1 [REBASTINIB] | > 30 µM (inactive) | > 30 µM (inactive) | > 30 µM (inactive) | > 30 µM (inactive) | > 30 µM (inactive) | > 30 µM (inactive) | > 30 µM (inactive) | > 30 µM (inactive) | 0.126 µM (active) | 1.07 µM (active) | > 30 µM (inactive) | –
Cc1cc(Nc2ncnc3ccc(NC4=NC(C)(C)CO4)cc23)ccc1Oc1ccn2ncnc2c1 [TUCATINIB] | > 30 µM (inactive) | > 30 µM (inactive) | > 30 µM (inactive) | > 30 µM (inactive) | > 30 µM (inactive) | > 30 µM (inactive) | > 30 µM (inactive) | > 30 µM (inactive) | > 30 µM (inactive) | > 30 µM (inactive) | – | > 30 µM (inactive)

Next, values leading:

Kd (DNA topoisomerase 2-beta) | Kd [1] | Kd [2] | Kd [3] | Kd [4] | Kd [5] | Kd [6] | Kd [7] | Kd [8] | Kd [9] | Kd [10] | Kd (Ephrin type-A receptor 7) | SMILES
> 30 µM (inactive) | 3.88 µM (active) | > 30 µM (inactive) | > 30 µM (inactive) | > 30 µM (inactive) | > 30 µM (inactive) | > 30 µM (inactive) | > 30 µM (inactive) | > 30 µM (inactive) | > 30 µM (inactive) | – | > 30 µM (inactive) | Nc1ncnc2c1c(-c1cccc(OCc3ccccc3)c1)cn2[C@H]1C[C@@H](CN2CCC2)C1 [AEW-541]
> 30 µM (inactive) | 0.045 µM (active) | > 30 µM (inactive) | 0.388 µM (active) | 0.024 µM (active) | > 30 µM (inactive) | 0.117 µM (active) | – | – | > 30 µM (inactive) | > 30 µM (inactive) | 0.008 µM (active) | O=C(Nc1c[nH]nc1-c1nc2cc(CN3CCOCC3)ccc2[nH]1)NC1CC1 [AT-9283]
> 30 µM (inactive) | > 30 µM (inactive) | > 30 µM (inactive) | > 30 µM (inactive) | > 30 µM (inactive) | > 30 µM (inactive) | > 30 µM (inactive) | > 30 µM (inactive) | > 30 µM (inactive) | > 30 µM (inactive) | > 30 µM (inactive) | – | C#Cc1cccc(Nc2ncnc3cc(OC)c(OCCCCCCC(=O)NO)cc23)c1 [CUDC-101]
> 30 µM (inactive) | > 30 µM (inactive) | > 30 µM (inactive) | > 30 µM (inactive) | > 30 µM (inactive) | > 30 µM (inactive) | > 30 µM (inactive) | > 30 µM (inactive) | – | > 30 µM (inactive) | > 30 µM (inactive) | > 30 µM (inactive) | Cn1cc(-c2cnc3ccc4ccc(CS(=O)(=O)NCc5ccccn5)cc4c(=O)c3c2)cn1 [MK-8033]
